# Where two headings read alike, the source gives them in different places. Non-standard residues stand in square brackets, D forms with d. Residues, ends and D or L forms follow the SMILES beside them. aIle = CC[C@@H](C)[C@H](N)C(=O)O; dOrn = NCCC[C@@H](N)C(=O)O
# Tests used:
# E. coli ATCC 13124 = test system: E. coli ATCC 13124
# Description: (§1) All the synthesized cyclopeptides (7–19) and the desotamide A (1) isolated from S. scopuliridis SCSIO ZJ46 were evaluated for antibacterial activities against a series of Gram-positive pathogens including […] Staphylococcus aureus ATCC29213, Bacillus subtilis BS01, Micrococcus luteus ML01, Enterococcus faecalis ATCC29212; 3 drug-resistant poultry pathogens Staphylococcus simulans LJH13, Enterococcus gallinarum LJH11, Staphylococcus haemolyticus LJH9; 4 clinical methicillin-resistant Staphylococcus aureus (MRSA) shhs-E1, MRSA 16339, MRSA 745524, MRSA 16162. Their antibacterial activities against the […] pathogens Escherichia coli ATCC 13,124 and clinical drug-resistant Klebsiella pneumonia 15580 were also assayed.
# (§2) Ampicillin, vancomycin and polymyxin were used as control. The maximum test concentrations for all the compounds were 128 μg/mL.
# [1] = test system: Klebsiella pneumoniae 15580
# Description: as §1, §2
# Gram-positive pathogens = settings: for Gram positive antibacterial activity for desotamides (in words) / Gram positive antibacterial activity for wollamides (in words): summary; for Gram positive antibacterial activity for desotamides (in words): Figure 2; for Gram positive antibacterial activity for wollamides (in words): Figure 3; for fold increase of antibacterial activities compared to desotamide A (1): entire test panel of Gram-positive bacteria
# Description: as §1, §2
# [2] = test system: Staphylococcus simulans LJH13; assay: microbe, parasite or virus in culture
# Description: as §1, §2
# [3] = test system: Staphylococcus haemolyticus LJH9; assay: microbe, parasite or virus in culture
# Description: as §1, §2
# Micrococcus luteus ML01 = assay: microbe, parasite or virus in culture
# Description: as §1, §2
# MRSA 16339 = assay: microbe, parasite or virus in culture
# Description: as §1, §2
# [4] = test system: Enterococcus faecalis ATCC 29212; assay: microbe, parasite or virus in culture
# Description: as §1, §2
# Bacillus subtilis BS01 = assay: microbe, parasite or virus in culture
# Description: as §1, §2
# [5] = test system: Staphylococcus aureus ATCC 29213; assay: microbe, parasite or virus in culture
# Description: as §1, §2
# [6] = test system: Enterococcus gallinarum LJH11; assay: microbe, parasite or virus in culture
# Description: as §1, §2
# [7] = test system: methicillin-resistant Staphylococcus aureus (MRSA) shhsE1; assay: microbe, parasite or virus in culture
# Description: as §1, §2
# MRSA 16162 = assay: microbe, parasite or virus in culture
# Description: as §1, §2
# MRSA 745524 = assay: microbe, parasite or virus in culture
# Description: as §1, §2
# Gram-negative pathogens = settings: weak activity; summary of Table 1
# Description: as §1, §2
# [8] = no notable antibacterial activities; cited from earlier work
# Excerpt: Comparison of the naturally produced desotamides, a preliminary SAR of this class of compounds has been defined.
# Staphylococcus aureus = test system: Staphylococcus aureus; parameters: method as in PMID 25229313; settings: previous report; cited from earlier work
# [9] = E. coli ATCC 13124, two-fold serial dilution, Mueller-Hinton broth, 96-well plate, CLSI-based, maximum test concentration 128 μg/mL
# [10] = clinical drug-resistant Klebsiella pneumoniae 15580, two-fold serial dilution, Mueller-Hinton broth, 96-well plate, CLSI-based, maximum test concentration 128 μg/mL
# [11] = Staphylococcus simulans LJH13, drug-resistant poultry pathogen, two-fold serial dilution, Mueller-Hinton broth, 96-well plate, CLSI-based, maximum test concentration 128 μg/mL
# [12] = Staphylococcus haemolyticus LJH9, drug-resistant poultry pathogen, two-fold serial dilution, Mueller-Hinton broth, 96-well plate, CLSI-based, maximum test concentration 128 μg/mL
# [13] = Micrococcus luteus ML01, two-fold serial dilution, Mueller-Hinton broth, 96-well plate, CLSI-based, maximum test concentration 128 μg/mL
# [14] = clinical MRSA 16339, two-fold serial dilution, Mueller-Hinton broth, 96-well plate, CLSI-based, maximum test concentration 128 μg/mL
# [15] = Enterococcus faecalis ATCC 29212, two-fold serial dilution, Mueller-Hinton broth, 96-well plate, CLSI-based, maximum test concentration 128 μg/mL
# [16] = Bacillus subtilis BS01, two-fold serial dilution, Mueller-Hinton broth, 96-well plate, CLSI-based, maximum test concentration 128 μg/mL
# [17] = Staphylococcus aureus ATCC 29213, two-fold serial dilution, Mueller-Hinton broth, 96-well plate, CLSI-based, maximum test concentration 128 μg/mL
# [18] = Enterococcus gallinarum LJH11, drug-resistant poultry pathogen, two-fold serial dilution, Mueller-Hinton broth, 96-well plate, CLSI-based, maximum test concentration 128 μg/mL
# [19] = clinical MRSA shhsE1, two-fold serial dilution, Mueller-Hinton broth, 96-well plate, CLSI-based, maximum test concentration 128 μg/mL
# [20] = clinical MRSA 16162, two-fold serial dilution, Mueller-Hinton broth, 96-well plate, CLSI-based, maximum test concentration 128 μg/mL
# [21] = clinical MRSA 745524, two-fold serial dilution, Mueller-Hinton broth, 96-well plate, CLSI-based, maximum test concentration 128 μg/mL
Compound,MIC [1]; 15580 [µg/mL],Gram positive antibacterial activity for desotamides (in words) (Gram-positive pathogens),MIC [2] [µg/mL],MIC [3] [µg/mL],MIC (Micrococcus luteus ML01; ML01) [µg/mL],MIC (MRSA 16339; 16339) [µg/mL],MIC ([4]; ATCC 29212) [µg/mL],MIC (Bacillus subtilis BS01; BS01) [µg/mL],MIC ([5]; ATCC 29213) [µg/mL],MIC [6] [µg/mL],MIC ([7]; methicillin-resistant shhsE1) [µg/mL],MIC (MRSA 16162; 16162) [µg/mL],MIC (MRSA 745524; 745524) [µg/mL],MIC (E. coli ATCC 13124; [9]) [µg/mL],"MIC [1, 10] [µg/mL]","MIC [7, 19] [µg/mL]",further results
"CC[C@@H](C)[C@@H]1NC(=O)[C@@H](CC(C)C)NC(=O)[C@H](CC(C)C)NC(=O)[C@H](Cc2c[nH]c3ccccc23)NC(=O)CNC(=O)[C@H](CC(N)=O)NC1=O [Compound 1, desotamide A] (cyclo(GWL[dL][aIle]N))",>128,Moderately active,16,128,32,16,64,32,32,64,64,32,8,,,,MIC (E. coli ATCC 13124; ATCC 13124): >128 µg/mL
"CC(C)C[C@@H]1NC(=O)[C@H](Cc2c[nH]c3ccccc23)NC(=O)[C@@H](CCCN)NC(=O)[C@H](CC(N)=O)NC(=O)[C@H](C(C)C)NC(=O)[C@@H](CC(C)C)NC1=O [Compound 7, Wollamide B] (cyclo([dOrn]WL[dL]VN))",,,,,,,,,,,,,,128,>128,32,"Gram positive antibacterial activity for wollamides (in words) (Gram-positive pathogens): Moderately active; MIC [2, 11]: 16 µg/mL; MIC [3, 12]: 64 µg/mL; MIC (Micrococcus luteus ML01; [13]): 16 µg/mL; MIC (MRSA 16339; [14]): 64 µg/mL; MIC [4, 15]: 128 µg/mL; MIC (Bacillus subtilis BS01; [16]): 32 µg/mL; MIC [5, 17]: 32 µg/mL; MIC [6, 18]: >128 µg/mL; MIC (MRSA 16162; [20]): 64 µg/mL; MIC (MRSA 745524; [21]): 32 µg/mL"
"CC(C)C[C@@H]1NC(=O)[C@H](Cc2c[nH]c3ccccc23)NC(=O)[C@@H](CCCNC(=N)N)NC(=O)[C@H](CC(N)=O)NC(=O)[C@H](C(C)C)NC(=O)[C@@H](CC(C)C)NC1=O [Compound 8, Wollamide B1] (cyclo([dR]WL[dL]VN))",>128,,8,32,8,16,32,8,16,64,,16,16,128,,16,fold increase of anti-Gram-positive activity compared to wollamide B (7) (Gram-positive pathogens; Gram-positive bacteria): 2–4 folds; Gram positive antibacterial activity for wollamides (in words) (Gram-positive pathogens): 2–4-Fold more active than 7
"CC[C@H](C)[C@@H]1NC(=O)[C@H](CC(N)=O)NC(=O)[C@@H](CCCCN)NC(=O)[C@H](Cc2c[nH]c3ccccc23)NC(=O)[C@H](CC(C)C)NC(=O)[C@@H](CC(C)C)NC1=O [Compound 13, Desotamide A4] (cyclo(I[dL]LW[dK]N))",>128,2–4-Fold more active than 1,8,32,8,16,32,8,16,64,16,16,16,,,,MIC against the Gram-negative pathogens tested (summary) (Gram-negative pathogens): 64 to 128 µg/mL; MIC (E. coli ATCC 13124; ATCC 13124): 64 µg/mL; MIC values against Gram-positive pathogens (summary over the panel) (Gram-positive pathogens): 8 to 32 µg/mL; fold increase of antibacterial activities compared to desotamide A (1) (Gram-positive pathogens): 2–4 fold
"CC[C@H](C)[C@@H]1NC(=O)[C@H](CC(N)=O)NC(=O)[C@@H](CCCNC(=N)N)NC(=O)[C@H](Cc2c[nH]c3ccccc23)NC(=O)[C@H](CC(C)C)NC(=O)[C@@H](CC(C)C)NC1=O [Compound 15, Desotamide A6] (cyclo(I[dL]LW[dR]N))",>128,2–4-Fold more active than 1,8,32,8,16,32,8,16,128,8,16,8,,,,MIC against the Gram-negative pathogens tested (summary) (Gram-negative pathogens): 64 to 128 µg/mL; MIC values against Gram-positive pathogens (summary over the panel) (Gram-positive pathogens): 8 to 32 µg/mL; fold increase of antibacterial activities compared to desotamide A (1) (Gram-positive pathogens): 2–4 fold
"cyclo(Asn-Ile-D-Leu-Leu-Trp-D-His) (head to tail) [Compound 18, Desotamide A9]",,Inactive,,,,,,,,,,,,,>128,>128,"MIC values against Gram-positive pathogens (summary over the panel) (Gram-positive pathogens; series of Gram-positive pathogens including MRSA, summary of Table 1): > 128 µg/mL; MIC [2, 11]: >128 µg/mL; MIC [3, 12]: >128 µg/mL; MIC (Micrococcus luteus ML01; [13]): >128 µg/mL; MIC (MRSA 16339; [14]): >128 µg/mL; MIC [4, 15]: >128 µg/mL; MIC (Bacillus subtilis BS01; [16]): >128 µg/mL; MIC [5, 17]: >128 µg/mL; MIC [6, 18]: >128 µg/mL; MIC (MRSA 16162; [20]): >128 µg/mL; MIC (MRSA 745524; [21]): >128 µg/mL"
desotamide G [Compound 5],,,,,,,,,,,,,,,,,"MIC, antibacterial activities [8]: > 113 µg/mL"
polymyxin [reference compound],,,,,,,,,,,,,,16,2,,
wollamide A [Compound 6],,,,,,,,,,,,,,,,,antibacterial activity against Staphylococcus aureus (in words) (Staphylococcus aureus): no antibacterial
